Ends that are not written are not given here.
Assays:
[1] = test system: SD rats with CCl4-induced hepatic fibrosis; assay: CCl4-induced hepatic fibrosis animal model; format: in vivo; conditions: CCl4 8 weeks, polypeptides 6 mg/kg s.c. once a day, colchicine intragastric 5 times/week
Method: Source and strain: SPF level, SD rats, provided by Shanghai Xipuer-Bikai laboratory Animal Co., Ltd. (laboratory animal license: SCXK (hu) 2013-0016)
There were 10 rats in each group. Modeling was performed on the rats. Each group other than the blank group was injected with 40% CCl4 intraperitoneally twice a week, the first injection was performed at 3 mL/kg, and then administration was performed at 2 mL/kg. Administration was performed for 8 weeks, and a total of 16 injections were provided to induce hepatic fibrosis. After the intraperitoneal injection of CCl4 for the fourth time, polypeptide therapy was started on the next day, and administration was performed by subcutaneous injection once a day until the end of induction. After the intraperitoneal injection of CCl4 for the fourth time, colchicine was administrated on the next day at 200 μg/kg, 5 times a week, and intragastric administration therapy was implemented. After induction for 8 weeks, the administration was stopped. On the second day, the SD rats were dissected, blood was taken, and the liver tissue was taken and stored in a refrigerator at −80° C. for later use. The expressions of AST and ALT in serum and HYP in the rat liver tissue were detected.

[2] = test system: SD rats with bleomycin-induced pulmonary fibrosis; assay: Bleomycin-induced pulmonary fibrosis animal model; format: in vivo; conditions: for Survival rate (%): bleomycin 5 mg/kg intratracheal, polypeptides 10 mg/kg subcutaneous twice a day for 14 days, positive drug Nintedanib intragastric once a day, model group 57.1%; for content of HYP in lung tissues, difference from model group / content of TGF-β1 in serum, difference from model group: polypeptides 10 mg/kg s.c. twice a day, Nintedanib 25 mg/kg intragastric once a day, 14 days
Method: Source and strain: clean SD rats, provided by Comparative Medicine Center of Yangzhou University (laboratory animal production license: SCXK (Su) 2012-0004); Certification of Using of Laboratory Animal: SYXK (Su) 2012-0035).
SD rats were anesthetized by intraperitoneal injection of 1 mL/100 g 4% chloral hydrate. After anesthesia, the rats were fixed and their necks were disinfected by using cotton with 75% alcohol. The skin of the rat neck was longitudinally cut with scissors, and the fascia and muscle were longitudinally bluntly torn with tweezers to expose the trachea. A syringe was inserted into the trachea to inject 5 mg/kg bleomycin, while a blank group was injected with an equal amount of normal saline. Then a rat plate was quickly erected and rotated, the rats' breathing was observed, the neck wound was sterilized after rotation and was sewn, and an amoxicillin anti-inflammatory drug was sprinkled on the suture. After the operation, the rats were put back into a dry and clean cage for resting, waiting was performed for awakening. The rats were awakened after about 1-2 hours, and then fed normally. On the 7th day after modeling, modeling group animals randomly fell into a model group, a Nintedanib positive drug group, polypeptide I, II, III and IV dosage groups, and a normal control group, and the groups were administered separately for an administration cycle of 14 days. Living situations of rats were observed every day and their weights were weighed. After administration for 14 days, the eyeballs were removed and blood was taken, the rats were dissected, and lungs were taken. The content of TGF-β1 in serum and the content of HYP in lung tissues were detected.

[3] = test system: SD rats with renal fibrosis; assay: Renal fibrosis model (ureter ligation); format: in vivo; conditions: 6 mg/kg s.c. twice a day, 14 days
Method: Clean grade male SD rats, purchased from Nanjing Qinglong Mountain Animal Farm, and weighed 180-200 g at the time of purchase, 190-210 g at the beginning of modeling, and 180-200 g at the beginning of administration.
A renal fibrosis animal model was established. SD rats were anesthetized with 4% chloral hydrate, injected with 1 mL/100 g intraperitoneally, fixed to an operation board, and sterilized in an operation area for later use. […] Muscular layers and abdominal walls were sewed layer by layer, the suture was disinfected with alcohol. After SD rats woke up, the rats were put into a cage for feeding. In the blank group, ureter was not ligated, and other steps were the same.
Then, the animals fell into a blank group, a model group, and polypeptide administration groups, with 10 animals in each group, and the administration was started on the second day after the operation, and was performed for 14 days. After administration for 14 days, blood was taken and supernatant was taken to detect the content of TGF-β1 in serum.

[4] = test system: mice with myocardial fibrosis; assay: Isoprenaline-induced myocardial fibrosis model; format: in vivo; conditions: BALB/c mice, isoprenaline 5 mg/kg 7 days; 12 mg/kg s.c. twice a day
Method: 1. Experimental Mice: 10-Week-Old Male BALB/c Mice (with an Average Weight of 20 g).
In the model group, the experimental mice were injected with isoprenaline (ISO) (5 mg/kg) subcutaneously on the back of the mice every day for 7 consecutive days, and the mice were injected with normal saline subcutaneously (200 μL/mouse) every day. In the blank group, normal saline was injected subcutaneously (200 μL/mouse) every day. While a model was made, polypeptide drugs were administrated for treatment by subcutaneous injection. After the 8th day, blood was taken and was centrifuged, the supernatant was taken, and the content of TGF-β1 in serum was detected.

[5] = test system: mice with skin fibrosis; assay: Bleomycin-induced skin fibrosis model; format: in vivo, C57/BL black mice; conditions: C57/BL mice, bleomycin s.c. 28 days; 10 mg/kg s.c. twice a day
Method: Male C57/BL black mice aged 6-8 weeks, purchased from Nanjing Qinglong Mountain Animal Farm. Bleomycin (10 μg/mL) was injected subcutaneously every day for 28 days to form skin fibrosis. During the modeling period, the administration groups were given polypeptide drugs twice a day for treatment. After modeling, the mice were killed on the next day, and the skin tissue of the mouse back was taken to detect the content of HYP in the skin tissue. [table]

[6] = test system: Streptococcus pneumoniae; assay: Mouse pneumonia model, bacterial pneumonia; format: in vivo, BALB/C mice; design: unit not given here; conditions: nasal drip, average values + standard deviation
Excerpt: (§1) A mouse pneumonia model was successfully established by using a nasal drip method. BALB/C mice with a body weight of 18-24 g were selected, and then anesthetized with ether on day 0, day 1 and day 2, respectively, prepared Streptococcus pneumoniae bacteria solution, adenovirus concentrated solution, Mycoplasma pneumoniae, Chlamydia pneumoniae, protozoa and pneumonia fungi were slowly dropped into the nasal cavity of the mice, so that the bacteria solutions entered the trachea and bronchi, and the bacteria solutions were prevented from flowing into the esophagus during the operation to avoid inactivation of the bacteria solutions, so that the mouse pneumonia model was established. After the model was successfully established, the polypeptide according to the present disclosure was administered, as shown in FIG. 9 and Table 7. […] The experimental results are represented on the basis of average values+standard deviation.

[7] = test system: adenovirus; assay: Mouse pneumonia model, viral pneumonia; format: in vivo, BALB/C mice; design: unit not given here; conditions: nasal drip, average values + standard deviation
Excerpt: as §1

[8] = test system: Mycoplasma pneumoniae; assay: Mouse pneumonia model, mycoplasma pneumonia; format: in vivo, BALB/C mice; design: unit not given here; conditions: nasal drip, average values + standard deviation
Excerpt: as §1

[9] = test system: Chlamydia pneumoniae; assay: Mouse pneumonia model, chlamydia pneumonia; format: in vivo, BALB/C mice; design: unit not given here; conditions: nasal drip, average values + standard deviation
Excerpt: as §1

[10] = test system: protozoa; assay: Mouse pneumonia model, protozoal pneumonia; format: in vivo, BALB/C mice; design: unit not given here; conditions: nasal drip, average values + standard deviation
Excerpt: as §1

[11] = test system: pneumonia fungi; assay: Mouse pneumonia model, fungal pneumonia; format: in vivo, BALB/C mice; design: unit not given here; conditions: nasal drip, average values + standard deviation
Excerpt: as §1

[12] = test system: multiple pulmonary infections; assay: Mouse pneumonia model, pneumonia caused by pulmonary infections; format: in vivo, BALB/C mice; design: unit not given here; conditions: nasal drip, average values + standard deviation
Excerpt: as §1

[13] = bleomycin-induced pulmonary fibrosis

Compound	content of ALT in serum, difference from model group [1]	content of AST in serum, difference from model group [1]	content of HYP in the liver tissue, difference from model group [1]	Survival rate (%) [2] [%]	content of HYP in lung tissues, difference from model group [2, 13]	content of TGF-β1 in serum, difference from model group [2, 13]	content of TGF-β1 in serum, difference from model group [3]	content of TGF-β1 in serum, difference from model group [4]	content of HYP in the skin tissue, difference from model group [5]	Inhibitory effect on pulmonary infections: Bacterial pneumonia [6]	Inhibitory effect on pulmonary infections: Viral pneumonia [7]	Inhibitory effect on pulmonary infections: Mycoplasma pneumonia [8]	Inhibitory effect on pulmonary infections: Chlamydia pneumonia [9]	Inhibitory effect on pulmonary infections: Protozoal pneumonia [10]	Inhibitory effect on pulmonary infections: Fungal pneumonia [11]	Inhibitory effect on pulmonary infections: Pneumonia caused by pulmonary infections [12]	reduction of HYP in lung tissues compared with the positive drug ([2]; bleomycin-induced pulmonary fibrosis, comparison with Nintedanib)
COc1cc2c(c(OC)c1OC)-c1ccc(OC)c(=O)cc1[C@@H](NC(C)=O)CC2 [Colchicine, reference compound]	significantly lower than those in the model group	highly significantly different from the model group (** P<0.01)	highly significantly different from the model group (*** P<0.001)														
COC(=O)c1ccc2c(c1)NC(=O)/C2=C(\Nc1ccc(N(C)C(=O)CN2CCN(C)CC2)cc1)c1ccccc1 [Nintedanib, reference compound]				85.7	highly significantly different from the model group (** P<0.01)	highly significantly different from the model group (*** P<0.001)											
PRCWCGEGGGGIVRRADRAAVPGGGGRGD (cysteine pairing not given here) [Polypeptide III]		highly significantly different from the model group (*** P<0.001)	highly significantly different from the model group (*** P<0.001)	85.7	significantly different from the model group (*P<0.05)	highly significantly different from the model group (*** P<0.001)	highly significantly different from the model group (** P<0.01)	highly significantly different from the model group (** P<0.01)	highly significantly different from the model group (*P<0.05)	47.29 ± 8.76	67.49 ± 9.94	43.93 ± 5.53	56.40 ± 5.49	64.29 ± 8.70	62.88 ± 5.94	56.81 ± 3.13	
PRCWRGEGGGGIAVVRRADRAPGGGGRGD [Polypeptide I]		highly significantly different from the model group (*** P<0.001)	highly significantly different from the model group (*** P<0.001)	85.7	highly significantly different from the model group (*** P<0.001)	highly significantly different from the model group (*** P<0.001)	highly significantly different from the model group (*** P<0.001)	highly significantly different from the model group (** P<0.01)	highly significantly different from the model group (** P<0.01)	34.83 ± 7.95	50.00 ± 6.84	36.48 ± 5.55	37.18 ± 7.46	48.16 ± 5.46	47.54 ± 9.68	47.52 ± 7.88	better effects than the positive drug
Penicillin [reference compound]										37.05 ± 4.35	48.07 ± 2.07	39.78 ± 5.23	32.57 ± 3.13	40.34 ± 3.02	36.87 ± 2.82	39.56 ± 4.35	

Reference: patent US12398196B2, “Fused polypeptide with multifunctional activities and use thereof” (NANJING ANJI BIOLOGICAL TECHNOLOGY CO., LTD., priority 2019, dated 2025)
